According to patent US6362369B1, “Phthalic acid diamide derivatives fluorine-containing aniline compounds as starting material, agricultural and horticultural insecticides, and a method for application of the insecticides” (Nihon Nohyaku Co., Ltd., priority 1997, dated 2002):

What was measured:
Type in all cases: in vivo
[1] = test system: common cutworm (Spodoptera Litura); assay: Insecticidal effect on common cutworm (Test Example 2); settings: common cutworm second-instar larvae; cabbage leaf immersed, 500 ppm; eight days after inoculation; 25° C.
Procedure, shortened: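 Second-instar larvae placed in 9 cm Petri dishes with air-dried treated material, held at 25 °C. Dead and live insects counted 8 days after inoculation; mortality calculated and scored against a set criterion. Triplicate groups of 10 insects.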

[2] = test system: diamondback moth (Plutella xylostella); assay: Insecticidal effect on diamondback moth (Test Example 1); settings: diamondback moth; mortality judged by criterion of Test Example 1
Procedure, shortened: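 Eggs laid by adult moths on Chinese cabbage seedlings, which were immersed in test solution, air-dried and kept at 25 °C. Hatched insects counted 6 days after immersion and mortality calculated, with effect graded by criterion; triplicate groups of 10 insects.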

[3] = test system: rice leafroller (Cnaphalocrocis medinalis); assay: Insecticidal effect on rice leafroller (Test Example 3); settings: rice leafroller third-instar larvae; rice lamina immersed, 500 ppm; four days after inoculation; 25° C., humidity 70%
Procedure, shortened: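 Groups of 10 third-instar larvae, in triplicate, are placed on air-dried lamina resting on wet filter paper. Incubation runs four days at 25° C with 70% humidity before survivors and dead are tallied.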

Row | Structure (SMILES) | Insecticidal effect, Test Example 2 [1] | Insecticidal effect, Test Example 1 [2] | Insecticidal effect, Test Example 3 [3]
1 | CC(C)NC(=O)c1c(C(=O)Nc2ccc(C(O)(C(F)(F)F)C(F)(F)F)cc2)cccc1[N+](=O)[O-] [compound 979] | A (100) | A (100) | A (100)
2 | CC(C)NC(=O)c1c(Cl)cccc1C(=O)Nc1ccc(C(O)(C(F)(F)F)C(F)(F)F)cc1 [compound 980] | A (100) | A (100) | A (100)
3 | COCCNC(=O)c1c(I)cccc1C(=O)Nc1ccc(C(F)(F)C(F)(F)F)cc1C [compound 981] | A (100) | A (100) | A (100)
4 | CCOCCNC(=O)c1c(I)cccc1C(=O)Nc1ccc(C(F)(F)C(F)(F)F)cc1C [compound 983] | A (100) | A (100) | A (100)
5 | COCCCNC(=O)c1c(I)cccc1C(=O)Nc1ccc(C(F)(F)C(F)(F)F)cc1C [compound 985] | A (100) | A (100) | A (100)
6 | C=CCNC(=O)c1c(I)cccc1C(=O)Nc1ccc(C(F)(F)C(F)(F)F)cc1C [compound 987] | A (100) | A (100) | A (100)
7 | C#CCNC(=O)c1c(I)cccc1C(=O)Nc1ccc(C(F)(F)C(F)(F)F)cc1C [compound 989] | A (100) | A (100) | A (100)
8 | Cc1cc(C(F)(F)C(F)(F)F)ccc1NC(=O)c1cccc(I)c1C(=O)NC1CCCC1 [compound 991] | A (100) | A (100) | A (100)
9 | CC(C)NC(=O)c1c(C(=O)Nc2ccc(SC(F)(F)F)cc2)cccc1[N+](=O)[O-] [compound 996] | A (100) | A (100) | A (100)
10 | CC(C)NC(=O)c1c(Cl)cccc1C(=O)Nc1ccc(SC(F)(F)F)cc1 [compound 997] | A (100) | A (100) | A (100)
11 | CC(C)NC(=O)c1c(I)cccc1C(=O)Nc1ccc(SC(F)(F)F)cc1 [compound 998] | A (100) | A (100) | A (100)
12 | CC(C)NC(=O)c1c(C(=O)Nc2ccc([S+]([O-])C(F)(F)F)cc2)cccc1[N+](=O)[O-] (stereo not drawn) [compound 1000] | D (79-50) | A (100) | A (100)
13 | CC(C)NC(=O)c1c(Cl)cccc1C(=O)Nc1ccc([S+]([O-])C(F)(F)F)cc1 (stereo not drawn) [compound 1001] | A (100) | A (100) | A (100)
14 | CC(C)NC(=O)c1c(I)cccc1C(=O)Nc1ccc([S+]([O-])C(F)(F)F)cc1 (stereo not drawn) [compound 1002] | A (100) | A (100) | A (100)
15 | CC(C)NC(=O)c1c(I)cccc1C(=O)Nc1ccc2c(c1)OC(F)(F)C(F)(F)O2 [compound 1003] | A (100) | A (100) | A (100)
16 | CC(C)NC(=O)c1c(I)cccc1C(=O)Nc1ccc(C(O)(C(F)(F)F)C(F)(F)F)cc1 [compound 1004] | A (100) | A (100) | A (100)
17 | Cc1cc(C(F)(F)C(F)(F)F)ccc1NC(=O)c1cccc(I)c1C(=O)NCC(C)C [compound 1005] | A (100) | A (100) | A (100)

Row | Structure (SMILES) | Insecticidal effect, Test Example 2 [1] | Insecticidal effect, Test Example 1 [2] | Insecticidal effect, Test Example 3 [3]
18 | CCC(C)NC(=O)c1c(I)cccc1C(=O)Nc1ccc(C(F)(F)C(F)(F)F)cc1C (stereo not drawn) [compound 1007] | A (100) | A (100) | A (100)
19 | CCCC(C)NC(=O)c1c(I)cccc1C(=O)Nc1ccc(C(F)(F)C(F)(F)F)cc1C (stereo not drawn) [compound 1009] | A (100) | A (100) | A (100)
20 | CCC(CC)NC(=O)c1c(I)cccc1C(=O)Nc1ccc(C(F)(F)C(F)(F)F)cc1C [compound 1011] | A (100) | A (100) | A (100)
21 | CCC(COC)NC(=O)c1c(I)cccc1C(=O)Nc1ccc(C(F)(F)C(F)(F)F)cc1C (stereo not drawn) [compound 1013] | A (100) | A (100) | A (100)
22 | Cc1cc(C(F)(F)C(F)(F)F)ccc1NC(=O)c1cccc(I)c1C(=O)NCCC(C)C [compound 1015] | D (79-50) | A (100) | A (100)
23 | CCc1cc(C(F)(F)C(F)(F)F)ccc1NC(=O)c1cccc(I)c1C(=O)NC(C)C [compound 1017] | A (100) | A (100) | A (100)
24 | Cc1cc(OC(F)F)ccc1NC(=O)c1ccccc1C(=O)NC(C)(C)C [compound 1018] | D (79-50) | A (100) | A (100)
25 | Cc1cc(OC(F)F)ccc1NC(=O)c1cccc(Cl)c1C(=O)NC(C)(C)C [compound 1019] | A (100) | A (100) | A (100)
26 | Cc1cc(OC(F)F)ccc1NC(=O)c1cccc(I)c1C(=O)NC(C)(C)C [compound 1020] | A (100) | A (100) | A (100)
27 | CC(C)(C)NC(=O)c1c(Cl)cccc1C(=O)Nc1ccc(OC(F)(F)F)cc1Cl [compound 1022] | A (100) | A (100) | A (100)
28 | CC(C)(C)NC(=O)c1c(I)cccc1C(=O)Nc1ccc(OC(F)(F)F)cc1Cl [compound 1023] | A (100) | A (100) | A (100)
29 | Cc1cc(C(F)(F)C(F)(F)F)ccc1NC(=O)c1cccc(I)c1C(=O)NC1CC1 [compound 1024] | A (100) | A (100) | A (100)
30 | Cc1cc(C(F)(F)C(F)(F)F)ccc1NC(=O)c1cccc(I)c1C(=O)NCC1CCCCC1 [compound 1028] | A (100) | A (100) | A (100)
31 | COCC(C)NC(=O)c1c(I)cccc1C(=O)Nc1ccc(C(F)(F)C(F)(F)F)cc1C (stereo not drawn) [compound 1031] | A (100) | A (100) | A (100)
32 | Cc1cc(C(F)(F)C(F)(F)F)ccc1NC(=O)c1cccc(I)c1C(=O)NC(C)C(C)C (stereo not drawn) [compound 1033] | A (100) | A (100) | A (100)
33 | CCN(CC)C(=O)c1c(I)cccc1C(=O)Nc1ccc(C(F)(F)C(F)(F)F)cc1C [compound 1035] | A (100) | A (100) | A (100)
34 | Cc1cc(C(F)(C(F)(F)F)C(F)(F)F)ccc1NC(=O)c1ccccc1C(=O)NC(C)(C)C [compound 1037] | A (100) | A (100) | A (100)
